US20180028424A1, “COMPOSITIONS FOR IMPROVING THE HEALTH OF HAIR, SKIN, AND NAILS” (FYBRANDS CORP., priority 2015, published 2018)

What was measured:
[1] = solubility of silibinin in water; assay type: physicochemical
From the text: In certain embodiments, the disclosure provides compositions to deliver the active ingredient to the root bulb of the hair follicle. Silibinin is not soluble in water. Creating a cream formulation could possibly lead to clogging of pores at the site of the hair follicle, which could negatively affect restoration of the follicle. In certain aspects, the present disclosure relates to delivery of silibinin using oil-based formulations. Oil is absorbed into the stratum corneum and deeper layers of the skin where the root bulb cells are located.

[2] = solubility of silibinin in acetone; assay type: physicochemical; settings: dissolved at 40-50° C. in Example 1
Method: Silibinin is soluble in acetone. We evaluated the possibility that silibinin could be first dissolved in acetone and then put into solution with an oil carrier. Since acetone evaporates to completion out of any open system, it could be removed leaving the silibinin in solution. One should keep in mind that acetone is incredibly flammable, and methods for removing acetone should be chosen carefully.
Briefly, a total desired amount of silibinin was dissolved into acetone at moderate temperature (40-50° C.). Capric/capryllic triglyceride was then added with mixing until completely mixed. […] The solution was cooled with stirring. Rosemary EO 1 was added once the temperature was below 50° C., and the product was poured into dispensing containers for use by test subjects.

Question: What does the source list for COc1cc(C2Oc3cc([C@H]4Oc5cc(O)cc(O)c5C(=O)[C@@H]4O)ccc3OC2CO)ccc1O (some centres unmarked) [Silibinin]?
Answer: solubility in water [1]: not soluble; solubility in acetone [2]: soluble
